In experiment [1] the target is T1, Human TRPA1 expressing CHO cells (Homo sapiens, UniProt O75762).
T1 construct: expressed in transfected cells; host or cells: CHO cells (G-418 selection)
Kind of experiment: 45Calcium uptake assay, inhibition of AITC induced calcium uptake (human). The experiment is classed as cell-based. To be noted: human TRPA1 CHO cells, AITC 30 μM. The procedure, abridged:
(§1)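 CHO cells expressing rat or human TRPA1 were pre-treated with compound for 10 min, then given AITC (30 μM human, 10 μM rat) plus 5 μCi/ml 45Ca2+ for 3 min; final DMSO 0.5%. Lysate radioactivity was counted by scintillation. IC50 came from nonlinear regression of concentration-response curves as % of maximal response.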

The target in experiment [2] is T2, Rat TRPA1 expressing CHO cells (Rattus norvegicus, UniProt Q6RI86).
T2 construct: expressed in transfected cells; host or cells: CHO cells (Zeocin selection)
Put plainly: 45Calcium uptake assay, inhibition of AITC induced calcium uptake (rat). The class given is cell-based. To be noted: rat TRPA1 CHO cells, AITC 10 μM. The method, boiled down:
as §1

[3] abbreviates: compound 1.0 μM, read-out: Percentage inhibition at 1.0 μM.
[4] abbreviates: compound 10.0 μM, read-out: Percentage inhibition at 10.0 μM.

pIC50: −log10 of the molar value.

T1 sequence (O75762 whole entry): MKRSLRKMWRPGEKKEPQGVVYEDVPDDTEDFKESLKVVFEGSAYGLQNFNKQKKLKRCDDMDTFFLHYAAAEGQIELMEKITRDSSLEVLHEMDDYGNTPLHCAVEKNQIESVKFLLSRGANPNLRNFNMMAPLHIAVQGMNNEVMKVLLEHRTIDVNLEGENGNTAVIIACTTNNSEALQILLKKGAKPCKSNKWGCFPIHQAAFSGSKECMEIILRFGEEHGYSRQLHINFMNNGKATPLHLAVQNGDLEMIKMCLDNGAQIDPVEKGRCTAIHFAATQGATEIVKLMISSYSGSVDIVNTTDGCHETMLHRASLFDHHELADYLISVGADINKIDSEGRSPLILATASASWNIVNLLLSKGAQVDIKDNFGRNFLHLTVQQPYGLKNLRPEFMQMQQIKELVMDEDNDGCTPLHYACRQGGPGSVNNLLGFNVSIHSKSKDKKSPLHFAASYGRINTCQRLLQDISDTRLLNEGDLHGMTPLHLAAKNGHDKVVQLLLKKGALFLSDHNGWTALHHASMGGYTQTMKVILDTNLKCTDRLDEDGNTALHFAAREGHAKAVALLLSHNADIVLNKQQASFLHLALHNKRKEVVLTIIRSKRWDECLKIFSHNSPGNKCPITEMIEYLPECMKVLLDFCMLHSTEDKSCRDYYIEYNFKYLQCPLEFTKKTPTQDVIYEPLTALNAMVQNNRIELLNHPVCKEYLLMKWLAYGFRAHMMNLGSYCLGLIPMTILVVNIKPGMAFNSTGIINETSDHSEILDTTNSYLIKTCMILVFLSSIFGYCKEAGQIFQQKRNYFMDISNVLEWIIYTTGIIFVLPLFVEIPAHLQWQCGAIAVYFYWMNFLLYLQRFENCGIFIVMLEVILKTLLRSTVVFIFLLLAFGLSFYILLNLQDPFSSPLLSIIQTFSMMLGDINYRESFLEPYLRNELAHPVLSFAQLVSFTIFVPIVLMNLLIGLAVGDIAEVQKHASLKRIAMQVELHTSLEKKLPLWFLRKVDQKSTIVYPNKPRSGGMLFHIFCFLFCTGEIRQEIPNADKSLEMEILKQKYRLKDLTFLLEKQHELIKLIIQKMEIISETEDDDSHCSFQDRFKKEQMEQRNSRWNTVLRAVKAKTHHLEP
T2 sequence (Q6RI86 whole entry): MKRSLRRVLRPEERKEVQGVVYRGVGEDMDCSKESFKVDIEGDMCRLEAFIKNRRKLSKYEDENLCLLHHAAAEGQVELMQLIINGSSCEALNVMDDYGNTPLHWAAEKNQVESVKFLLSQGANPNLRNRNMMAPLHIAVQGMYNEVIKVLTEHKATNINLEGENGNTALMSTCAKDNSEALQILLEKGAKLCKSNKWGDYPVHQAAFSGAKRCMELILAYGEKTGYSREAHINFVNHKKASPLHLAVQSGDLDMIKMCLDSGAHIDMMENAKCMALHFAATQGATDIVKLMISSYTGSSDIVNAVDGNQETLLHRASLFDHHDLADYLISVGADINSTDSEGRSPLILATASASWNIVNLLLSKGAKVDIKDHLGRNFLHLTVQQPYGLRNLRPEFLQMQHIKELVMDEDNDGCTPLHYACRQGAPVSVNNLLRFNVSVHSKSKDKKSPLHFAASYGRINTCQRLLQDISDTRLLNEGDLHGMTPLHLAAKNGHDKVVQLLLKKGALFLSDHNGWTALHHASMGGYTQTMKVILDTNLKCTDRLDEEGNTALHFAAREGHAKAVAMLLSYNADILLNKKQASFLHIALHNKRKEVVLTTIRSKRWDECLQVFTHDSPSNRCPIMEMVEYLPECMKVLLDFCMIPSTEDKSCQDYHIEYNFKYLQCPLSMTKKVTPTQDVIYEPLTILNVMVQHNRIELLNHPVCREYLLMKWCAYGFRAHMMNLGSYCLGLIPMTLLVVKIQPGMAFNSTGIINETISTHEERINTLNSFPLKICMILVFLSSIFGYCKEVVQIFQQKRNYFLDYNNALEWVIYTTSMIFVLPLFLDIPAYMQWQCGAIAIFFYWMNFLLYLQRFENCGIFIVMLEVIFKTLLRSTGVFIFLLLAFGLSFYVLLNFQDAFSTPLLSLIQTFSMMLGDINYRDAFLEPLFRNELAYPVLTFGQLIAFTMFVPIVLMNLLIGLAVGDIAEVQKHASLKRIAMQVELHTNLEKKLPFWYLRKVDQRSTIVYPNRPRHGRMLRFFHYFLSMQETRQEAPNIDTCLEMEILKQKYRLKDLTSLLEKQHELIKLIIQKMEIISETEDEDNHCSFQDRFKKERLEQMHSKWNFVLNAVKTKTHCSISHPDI

As usually defined, the inhibition is the percentage by which the read-out fell short of the control. By pIC50 is commonly meant the IC50 on a negative log10 scale, so that one unit is a factor of ten. With `Cn1c(=O)c2c(CC(=O)Nc3nc(-c4cccc(OC(F)(F)F)c4)cs3)csc2n(C)c1=O` [Example 3, 2-(1,3-Dimethyl-2,4-dioxo-1,2,3,4-tetrahydrothieno[2,3-d]pyrimidin-5-yl)-N-{4-[3-(trifluoromethoxy)phenyl]-1,3-thiazol-2-yl}acetamide], the inhibition at 1 µM was 89% in experiment [1] (setting [3]) and 82.4% in experiment [2] (setting [3]). Moreover, the inhibition at 10 µM in experiment [1] (setting [4]) amounted to 98.5%; in experiment [2] (setting [4]) it was 99.7%. In addition, the pIC50 in experiment [1] (read-out: Human IC50 value (Range)) was 6.30 to 7.30.

Values taken from patent US9474758B2, “Thienopyrimidinedione derivatives as TRPA1 modulators” (Glenmark Pharmaceuticals S.A., priority 2009, dated 2016).
